From PubChem BioAssay (NCI)
Values joined by “and” are separate entries in the source; they are usually repeats but may differ in a detail not shown here. Equal entries are not always repeated.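 Grown in 96-well plates, cells were treated for 48 hours with each compound at five concentrations. Insufficient inhibition: endpoint recorded as highest concentration tested. The concentration for 50% growth inhibition is given as GI50. TGI denotes the concentration required for complete inhibition of growth.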

Assays:
Experiment in all cases: NCI-60 cell line screen, 48 h
[1] = system: K-562 leukemia
[2] = system: MOLT-4 leukemia
[3] = system: SF-268 CNS
[4] = system: A549 NSCLC
[5] = system: NCI-H522 lung
[6] = system: EKVX NSCLC
[7] = system: M14 melanoma
[8] = system: HCT-116 colon
[9] = system: UO-31 renal
[10] = system: HCC-2998 colon

| Structure (SMILES) | GI50 [1] | TGI [1] | GI50 [2] | TGI [2] | GI50 [3] | TGI [3] | GI50 [4] | TGI [4] | GI50 [5] | TGI [5] | GI50 [6] | TGI [6] | GI50 [7] | TGI [7] | GI50 [8] | TGI [8] | GI50 [9] | TGI [9] | GI50 [10] | TGI [10] |
| --- | --- | --- | --- | --- | --- | --- | --- | --- | --- | --- | --- | --- | --- | --- | --- | --- | --- | --- | --- | --- |
| O=C(O)CN(CCN(CC(=O)O)CC(=O)O)CC(=O)O.[Mn+2] | > 100 µM | > 100 µM | > 100000 nM | > 100 µM | > 100 µM | > 100 µM | > 100000 nM | > 100 µM | > 100000 nM | > 100 µM | > 100000 nM | > 100 µM | > 100 µM | > 100 µM | > 100000 nM | > 100 µM | > 100000 nM | > 100 µM | > 100000 nM | > 100 µM |
| COc1cc(/C=C/c2cc(/C=C/c3ccc(O)c(OC)c3)n(C(=O)c3ccccc3Br)n2)ccc1O | 1.45 µM | > 100 µM | 1230 nM | > 100 µM | 2.44 µM | > 100 µM | 3050 nM | 45.3 µM | 1380 nM | 6.32 µM | 4720 nM | > 100 µM | 3.07 µM | > 100 µM | 3060 nM | > 100 µM | 2360 nM | 34.1 µM | 2480 nM | 6.37 µM |
| CC[C@H](C)[C@H](NC(=O)[C@H]1CCCCN1C)C(=O)N(C)[C@H](C[C@@H](OC(C)=O)c1nc(C(=O)NC23CC(C(=O)OC)(C2)C3)cs1)C(C)C |  | > 32.5 µM | 0.696 nM and 3.25 nM | > 32.5 µM | 0.000937 µM and 0.00325 µM | > 32.5 µM | 3.78 nM and 3.25 nM | > 32.5 µM | 0.156 nM and < 3.25 nM | 0.000901 µM and < 0.00325 µM | 47.5 nM and 17.5 nM | > 32.5 µM | 0.00554 µM and 0.00325 µM | 0.00618 µM | 0.878 nM and 3.25 nM | > 32.5 µM | 10.9 nM and 5.64 nM | > 32.5 µM | 2.99 nM and 3.25 nM | > 32.5 µM |
| CN(C)c1ccc(-c2cc(-c3ccc(Nc4nc(Nc5ccc(Cl)cc5)nc(Nc5ccc(Cl)cc5)n4)cc3)nc(N)c2C#N)cc1 | 5.2 µM | > 100 µM | 2130 nM | 20.5 µM | 40.3 µM | > 100 µM | 13900 nM | > 100 µM | 48400 nM | > 100 µM | > 100000 nM | > 100 µM | 18.3 µM | > 100 µM | 4990 nM | > 100 µM | 47600 nM | > 100 µM | 99400 nM | > 100 µM |
| CCCCCCCCCCCC[C@@H](O)[C@H]1CC[C@H]([C@H](O)CC[C@H](O)[C@@H]2CC[C@@H](CCCCCCCC3=C[C@H](C)OC3=O)O2)O1 | 3 µM | > 50 µM | 2550 nM | > 50 µM | 4.21 µM | > 50 µM | 2200 nM | > 50 µM |  | > 50 µM | 1690 nM | > 50 µM | 4.99 µM | > 50 µM | 1700 nM | > 50 µM | 2510 nM | > 50 µM |  | > 50 µM |
| CCCCCC/C=C\CCCCCCCCC(=O)c1cccc(OC)c1OC |  | > 100 µM |  | > 100 µM |  | > 100 µM |  | > 100 µM |  | > 100 µM |  | > 100 µM |  | > 100 µM |  | > 100 µM |  | > 100 µM |  | > 100 µM |
| Cn1c(=O)c2nc3sc4c(n3c2n(C)c1=O)C(=O)c1ccccc1C4=O |  | > 100 µM |  | 38.3 µM |  | > 100 µM |  | > 100 µM |  | 27.9 µM |  | > 100 µM |  | > 100 µM |  | > 71.4 µM |  | > 76 µM |  | > 100 µM |
| COc1cc(/C=C2\NC(=O)C(Cc3cc(OC)c(OC)c(C)c3OC)N(C(C)=O)C2=O)c(OC)c(C)c1OC (stereo unspecified) |  | > 100 µM |  | > 100 µM |  | > 100 µM |  | > 100 µM |  | 79.2 µM |  | > 100 µM |  | > 100 µM |  | > 100 µM |  | > 100 µM |  | > 100 µM |
| CCCCCC(=O)O[C@]1(C(C)=O)CCC2C3CCC4=CC(=O)CC[C@]4(C)C3CC[C@@]21C (stereo partly specified) | 3.19 µM | 21.9 µM | 2210 nM | 5.17 µM | 3.46 µM | 18 µM | 2780 nM | 15.9 µM | 1880 nM | 5.63 µM | 2910 nM | 20.2 µM | 2.55 µM | 6.85 µM | 1750 nM | 4.23 µM | 1930 nM | 10.3 µM | 2550 nM | 7.56 µM |
| NNC(=O)C(=O)NN=C(C(Cl)(Cl)CO)C(Cl)(Cl)CO |  | > 100 µM |  | 50.7 µM |  | > 100 µM |  | > 100 µM |  | 25 µM |  | > 100 µM |  | 94 µM |  | 66.1 µM |  | > 100 µM |  | > 100 µM |
| CCCCS(=O)c1sc2nc(-c3cccs3)cc(-c3ccccc3)c2c1N (stereo unspecified) | 5.96 µM | > 100 µM | 3800 nM | > 62.6 µM | 23.3 µM | > 100 µM | 9690 nM | > 100 µM | 17300 nM | > 87.8 µM | 9480 nM | > 100 µM | 17.9 µM | > 100 µM | 12300 nM | > 100 µM | 4160 nM | 49.2 µM | 32000 nM | > 100 µM |
| O=C1c2ccccc2N2OC3(N4CCOCC4)CCCC3C12c1ccccc1 (stereo unspecified) |  | > 100 µM |  | > 100 µM |  | > 100 µM |  | > 100 µM |  | > 100 µM |  | > 100 µM |  | > 100 µM |  | > 100 µM |  | > 100 µM |  | > 100 µM |
| O=C(c1cccs1)c1c(C(F)(F)F)n([O-])c2cc(Cl)c(Cl)cc2[n+]1=O | 0.344 µM | 17.4 µM |  | > 100 µM | 1.03 µM | 2.45 µM | 2720 nM | 5.85 µM | 550 nM | 2.2 µM | 2110 nM | 4.04 µM | 0.906 µM | 2.45 µM | 429 nM | 0.913 µM | 1900 nM | 4.14 µM | 1500 nM | 2.86 µM |
| CC1NOC(=O)C1N=Nc1ccc(Cl)cc1Cl (stereo unspecified) |  | 82.5 µM |  | 50.7 µM |  | 81.7 µM |  | 65.9 µM |  | 35.1 µM |  | 73.4 µM |  | 47.4 µM |  | 52.5 µM |  | 51 µM |  | 80.4 µM |
| C1CCC(N=C2N(C3CCCCC3)C(=NC3CCCCC3)N2C2CCCCC2)CC1 |  | > 100 µM |  | > 100 µM |  | > 100 µM |  | > 100 µM |  | > 100 µM |  | > 100 µM |  | > 100 µM |  | > 100 µM |  | > 100 µM |  | > 100 µM |
| Cc1cc(Br)c(NC(=O)c2c(-c3c(Cl)cccc3Cl)noc2C)c(Br)c1 | > 100 µM | > 100 µM | > 100000 nM | > 100 µM | > 100 µM | > 100 µM | > 100000 nM | > 100 µM | > 100000 nM | > 100 µM | > 100000 nM | > 100 µM | > 100 µM | > 100 µM | > 100000 nM | > 100 µM | > 100000 nM | > 100 µM | > 100000 nM | > 100 µM |
| NC(N)=NCCCC(NCc1c2ccccc2nc2ccccc12)C(=O)O (stereo unspecified) |  | > 89.4 µM |  | 45 µM |  | > 100 µM |  | > 100 µM |  | 69.9 µM |  | > 100 µM |  | > 100 µM |  | > 100 µM |  | > 100 µM |  | > 100 µM |
| COC(=O)C(C(=O)C(=O)Nc1c(Cl)cc([N+](=O)[O-])cc1Cl)c1csc(-n2nc(C3=CCCCC3)cc2-c2ccccc2)n1 (stereo unspecified) |  | > 100 µM |  | > 100 µM |  | > 100 µM |  | > 100 µM |  | > 100 µM |  | 94.7 µM |  | > 100 µM |  | > 100 µM |  | > 100 µM |  | > 100 µM |
